Laboratory results from patent publication US10323026B2, “Heterocyclic compound” (Takeda Pharmaceutical Company Limited, priority 2016, dated 2019).

Target: T1, His-hMAGL (recombinant polyhistidine tagged human MAGL protein) (Homo sapiens, UniProt Q99685)
T1 construct: polyhistidine (His) (N); made in house; host or cells: E. coli BL21(DE3)
T1 sequence (Q99685 1-303): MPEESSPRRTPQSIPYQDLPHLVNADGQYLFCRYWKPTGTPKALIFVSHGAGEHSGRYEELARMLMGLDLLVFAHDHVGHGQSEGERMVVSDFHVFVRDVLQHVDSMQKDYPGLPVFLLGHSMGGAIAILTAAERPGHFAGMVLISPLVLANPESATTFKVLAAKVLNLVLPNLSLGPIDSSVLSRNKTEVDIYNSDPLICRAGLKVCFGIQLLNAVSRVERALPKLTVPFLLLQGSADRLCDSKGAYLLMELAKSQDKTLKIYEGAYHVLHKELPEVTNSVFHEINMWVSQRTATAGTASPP
Test: Measurement of MAGL inhibitory activity (RapidFire-mass spectrometry of arachidonic acid produced from 2-arachidonylglycerol)
Assay type: biochemical
Conditions: test compound 10 μM; His-hMAGL; substrate 2-arachidonylglycerol; 60 min preincubation
Method in brief: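 After quenching with acetonitrile containing 3 μM arachidonic acid-d8, the arachidonic acid formed was measured by online SPE RapidFire-MS/MS in negative SRM mode and corrected against the d8 standard. Inhibition (%) was calculated relative to compound-free and enzyme-free groups.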

SMILES | % inhibition (10 μM)
Cc1ccc(OC(C)C2CCN(C(=O)[C@H]3C[C@]4(COC(=O)N4)C3)CC2)c(F)c1 (some centres unmarked) [Example 45, (2s,4s)-2-((4-(1-(2-fluoro-4-methylphenoxy)ethyl)piperidin-1-yl)carbonyl)-7-oxa-5-azaspiro[3.4]octan-6-one] | 100%
CC(Oc1ccc(F)cc1C(F)(F)F)C1CCN(C(=O)[C@H]2C[C@]3(COC(=O)N3)C2)CC1 (some centres unmarked) [Example 67, (2s,4s)-2-((4-(1-(4-fluoro-2-(trifluoromethyl)phenoxy)ethyl)piperidin-1-yl)carbonyl)-7-oxa-5-azaspiro[3.4]octan-6-one] | 100%
Cc1ccc(OC(C)C2CCN(C(=O)[C@H]3C[C@]4(COC(=O)N4)C3)CC2)c(F)c1 (some centres unmarked) [Example 46, (2s,4s)-2-((4-(1-(2-fluoro-4-methylphenoxy)ethyl)piperidin-1-yl)carbonyl)-7-oxa-5-azaspiro[3.4]octan-6-one] | 100%
CC(Oc1ccc(F)cc1C(F)(F)F)C1CCN(C(=O)[C@H]2C[C@]3(COC(=O)N3)C2)CC1 (some centres unmarked) [Example 66, (2s,4s)-2-((4-(1-(4-fluoro-2-(trifluoromethyl)phenoxy)ethyl)piperidin-1-yl)carbonyl)-7-oxa-5-azaspiro[3.4]octan-6-one] | 100%

Same assay, conditions: test compound 10 μM; His-hMAGL; substrate 2-arachidonylglycerol; 60 min preincubation; 10 µM

SMILES | % inhibition (10 μM)
CC(Oc1ccc(Cl)cc1F)C1CCN(C(=O)[C@H]2C[C@]3(COC(=O)N3)C2)CC1 (some centres unmarked) [Example 31, (2s,4s)-2-((4-(1-(4-chloro-2-fluorophenoxy)ethyl)piperidin-1-yl)carbonyl)-7-oxa-5-azaspiro[3.4]octan-6-one] | 101%
Cc1cc(F)ccc1OC(C)C1CCN(C(=O)[C@H]2C[C@]3(COC(=O)N3)C2)CC1 (some centres unmarked) [Example 33, (2s,4s)-2-((4-(1-(4-fluoro-2-methylphenoxy)ethyl)piperidin-1-yl)carbonyl)-7-oxa-5-azaspiro[3.4]octan-6-one] | 101%
CC1(C2CCN(C(=O)[C@H]3C[C@]4(COC(=O)N4)C3)CC2)Cc2ccc(C(F)(F)F)cc2O1 (some centres unmarked) [Example 70, (2s,4s)-2-((4-(2-methyl-6-(trifluoromethyl)-2,3-dihydro-1-benzofuran-2-yl)piperidin-1-yl)carbonyl)-7-oxa-5-azaspiro[3.4]octan-6-one] | 101%
CC(Oc1cc(F)c(F)cc1F)C1CCN(C(=O)[C@H]2C[C@]3(COC(=O)N3)C2)CC1 (some centres unmarked) [Example 54, (2s,4s)-2-((4-(1-(2,4,5-trifluorophenoxy)ethyl)piperidin-1-yl)carbonyl)-7-oxa-5-azaspiro[3.4]octan-6-one] | 101%
CC(Oc1c(F)ccc(F)c1F)C1CCN(C(=O)[C@H]2C[C@]3(COC(=O)N3)C2)CC1 (some centres unmarked) [Example 56, (2s,4s)-2-((4-(1-(2,3,6-trifluorophenoxy)ethyl)piperidin-1-yl)carbonyl)-7-oxa-5-azaspiro[3.4]octan-6-one] | 100%

Same assay, conditions: test compound 10 μM; His-hMAGL; substrate 2-arachidonylglycerol; 60 min preincubation; read-out: % inhibition (10 μM)

SMILES | inhibition at 10 µM
O=C1N[C@]2(CO1)C[C@H](C(=O)N1CC(CC(F)(F)c3ccc(C(F)(F)F)c(F)c3)C1)C2 [Example 99, (2s,4s)-2-((3-(2,2-difluoro-2-(3-fluoro-4-(trifluoromethyl)phenyl)ethyl)azetidin-1-yl)carbonyl)-7-oxa-5-azaspiro[3.4]octan-6-one] | 100%
O=C1N[C@]2(CO1)C[C@H](C(=O)N1CC(CC(F)(F)c3ccc(C(F)(F)F)cc3Cl)C1)C2 [Example 117, (2s,4s)-2-((3-(2-(2-chloro-4-(trifluoromethyl)phenyl)-2,2-difluoroethyl)azetidin-1-yl)carbonyl)-7-oxa-5-azaspiro[3.4]octan-6-one] | 100%
CC(Oc1ccc(F)cc1C(F)(F)F)C1CCN(C(=O)[C@H]2C[C@]3(CCC(=O)N3)C2)CC1 (some centres unmarked) [Example 73, (2r,4s)-2-((4-(1-(4-fluoro-2-(trifluoromethyl)phenoxy)ethyl)piperidin-1-yl)carbonyl)-5-azaspiro[3.4]octan-6-one] | 100%
CC(Oc1ccc(F)cc1F)C1CCN(C(=O)[C@H]2C[C@]3(COC(=O)N3)C2)CC1 (some centres unmarked) [Example 15, (2s,4s)-2-((4-(1-(2,4-difluorophenoxy)ethyl)piperidin-1-yl)carbonyl)-7-oxa-5-azaspiro[3.4]octan-6-one] | 100%
O=C1N[C@]2(CO1)C[C@H](C(=O)N1CC(OCc3ccc(C(F)(F)F)c(F)c3F)C1)C2 [Example 96, (2s,4s)-2-((3-((2,3-difluoro-4-(trifluoromethyl)benzyl)oxy)azetidin-1-yl)carbonyl)-7-oxa-5-azaspiro[3.4]octan-6-one] | 100%
N#Cc1ccc(OCC2CCN(C(=O)[C@H]3C[C@]4(COC(=O)N4)C3)CC2)c(Cl)c1 [Example 130, 3-chloro-4-((1-(((2s,4s)-6-oxo-7-oxa-5-azaspiro[3.4]oct-2-yl)carbonyl)piperidin-4-yl)methoxy)benzonitile] | 100%
CC1(C2CCN(C(=O)[C@H]3C[C@]4(COC(=O)N4)C3)CC2)Cc2cc(F)ccc2O1 (some centres unmarked) [Example 4, (2s,4s)-2-((4-(5-fluoro-2-methyl-2,3-dihydro-1-benzofuran-2-yl)piperidin-1-yl)carbonyl)-7-oxa-5-azaspiro[3.4]octan-6-one] | 100%
CC(Oc1ccc(C(F)(F)F)cc1F)C1CN(C(=O)[C@H]2C[C@]3(COC(=O)N3)C2)C1 (some centres unmarked) [Example 10, (2s,4s)-2-((3-(1-(2-fluoro-4-(trifluoromethyl)phenoxy)ethyl)azetidin-1-yl)carbonyl)-7-oxa-5-azaspiro[3.4]octan-6-one] | 100%
Cc1cc(OCC2CN(C(=O)[C@H]3C[C@]4(COC(=O)N4)C3)C2)c(F)cc1C(F)(F)F [Example 72, (2s,4s)-2-((3-((2-fluoro-5-methyl-4-(trifluoromethyl)phenoxy)methyl)azetidin-1-yl)carbonyl)-7-oxa-5-azaspiro[3.4]octan-6-one] | 101%
O=C1N[C@]2(CO1)C[C@H](C(=O)N1CC(CC(F)(F)c3ccc(Cl)c(C(F)(F)F)c3)C1)C2 [Example 118, (2s,4s)-2-((3-(2-(4-chloro-3-(trifluoromethyl)phenyl)-2,2-difluoroethyl)azetidin-1-yl)carbonyl)-7-oxa-5-azaspiro[3.4]octan-6-one] | 100%
O=C1COC[C@]2(C[C@H](C(=O)N3CCC(COc4ccc(F)cc4Cl)CC3)C2)N1 [Example 25, (2s,4s)-2-((4-((2-chloro-4-fluorophenoxy)methyl)piperidin-1-yl)carbonyl)-8-oxa-5-azaspiro[3.5]nonan-6-one] | 100%
Cc1ccc(COCC2CN(C(=O)[C@H]3C[C@]4(COC(=O)N4)C3)C2)cc1Cl [Example 120, (2s,4s)-2-((3-(((3-chloro-4-methylbenzyl)oxy)methyl)azetidin-1-yl)carbonyl)-7-oxa-5-azaspiro[3.4]octan-6-one] | 100%
CC1(C2CCN(C(=O)[C@H]3C[C@]4(CCC(=O)N4)C3)CC2)Cc2cc(F)ccc2O1 (some centres unmarked) [Example 5, (2r,4s)-2-((4-(5-fluoro-2-methyl-2,3-dihydro-1-benzofuran-2-yl)piperidin-1-yl)carbonyl)-5-azaspiro[3.4]octan-6-one] | 100%
O=C1N[C@]2(CO1)C[C@H](C(=O)N1CC(COc3ccc(C(F)(F)F)cc3F)C1)C2 [Example 9, (2s,4s)-2-((3-((2-fluoro-4-(trifluoromethyl)phenoxy)methyl)azetidin-1-yl)carbonyl)-7-oxa-5-azaspiro[3.4]octan-6-one] | 100%
O=C1N[C@]2(CO1)C[C@H](C(=O)N1CC(OCc3cc(C(F)(F)F)cc(C(F)(F)F)c3)C1)C2 [Example 113, (2s,4s)-2-((3-((3,5-bis(trifluoromethyl)benzyl)oxy)azetidin-1-yl)carbonyl)-7-oxa-5-azaspiro[3.4]octan-6-one] | 100%
N#Cc1cc(Cl)ccc1OCC1CCN(C(=O)[C@H]2C[C@]3(COC(=O)N3)C2)CC1 [Example 129, 5-chloro-2-((1-(((2s,4s)-6-oxo-7-oxa-5-azaspiro[3.4]oct-2-yl)carbonyl)piperidin-4-yl)methoxy)benzonitrile] | 100%
Cc1cc(F)ccc1OC(C)C1CCN(C(=O)[C@H]2C[C@]3(COC(=O)N3)C2)CC1 (some centres unmarked) [Example 20, (2s,4s)-2-((4-(1-(4-fluoro-2-methylphenoxy)ethyl)piperidin-1-yl)carbonyl)-7-oxa-5-azaspiro[3.4]octan-6-one] | 100%
O=C1N[C@]2(CO1)C[C@H](C(=O)N1CC(CC(F)(F)c3ccc(C(F)(F)F)cc3F)C1)C2 [Example 91, (2s,4s)-2-((3-(2,2-difluoro-2-(2-fluoro-4-(trifluoromethyl)phenyl)ethyl)azetidin-1-yl)carbonyl)-7-oxa-5-azaspiro[3.4]octan-6-one] | 100%
O=C1N[C@]2(CO1)C[C@H](C(=O)N1CCC3(CC1)CC(Oc1ccc(F)cc1Cl)C3)C2 [Example 62, (2s,4s)-2-((2-(2-chloro-4-fluorophenoxy)-7-azaspiro[3.5]non-7-yl)carbonyl)-7-oxa-5-azaspiro[3.4]octan-6-one] | 100%
Cc1ccc(COC2CN(C(=O)[C@H]3C[C@]4(COC(=O)N4)C3)C2)c(F)c1F [Example 94, (2s,4s)-2-((3-((2,3-difluoro-4-methylbenzyl)oxy)azetidin-1-yl)carbonyl)-7-oxa-5-azaspiro[3.4]octan-6-one] | 100%
